Structures can show the parent of a compound that is named as a salt. Where two headings read alike, the source gives them in different places.

The record followed here is US8871753B2, “Macrocyclic compounds and their use as kinase inhibitors” (Incyte Corporation, priority 2008, dated 2014).

Holding throughout (type): biochemical
In test [1] the target is T1, Recombinant Human Anaplastic Lymphoma Kinase (Homo sapiens, UniProt Q9UM73).
T1 construct: purchased Invitrogen, Carlsbad, Calif
The experiment in a line: ALK HTRF kinase assay. Put shortly: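 Recombinant human ALK phosphorylated a biotinylated synthetic peptide. Phosphotyrosine was detected by TR-FRET between a Eu-labelled anti-phosphotyrosine antibody and streptavidin-allophycocyanin. IC50 values came from fitting signal against inhibitor concentration to a four-parameter logistic equation with variable Hill slope.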

In test [2] the target is T2, human JAK3 (a.a. 781-1124) (Homo sapiens, UniProt P52333).
T2 construct: JAK3 (a.a. 781-1124); His tag (N); made in house; host or cells: insect cells (baculovirus)
T2 sequence (P52333 781-1124): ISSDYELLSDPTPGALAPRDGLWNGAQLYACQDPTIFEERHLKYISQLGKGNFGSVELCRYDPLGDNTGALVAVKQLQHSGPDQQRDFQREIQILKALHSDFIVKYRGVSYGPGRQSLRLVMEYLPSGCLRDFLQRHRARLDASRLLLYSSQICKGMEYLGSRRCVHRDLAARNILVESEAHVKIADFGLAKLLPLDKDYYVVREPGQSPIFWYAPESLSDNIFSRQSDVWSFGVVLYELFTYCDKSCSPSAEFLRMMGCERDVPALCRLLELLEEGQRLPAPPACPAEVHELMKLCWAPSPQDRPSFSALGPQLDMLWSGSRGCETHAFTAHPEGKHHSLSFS
The experiment in a line: In vitro JAK kinase assay (HTRF, phosphorylation of a biotinylated peptide), JAK3. The method in brief:
(§1)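 Kinase activity was measured as phosphorylation of a biotinylated peptide, with ATP at 90 μM for JAK1, 30 μM for JAK2 and 3 μM for JAK3. Reactions ran 1 hr at room temperature, were stopped with EDTA plus SA-APC and Eu-Py20, and were read by HTRF after 40 minutes of antibody binding.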

The target in test [3] is T3, human JAK2 (a.a. 828-1132) (Homo sapiens, UniProt O60674).
T3 construct: JAK2 (a.a. 828-1132); His tag (N); made in house; host or cells: insect cells (baculovirus)
T3 sequence (O60674 828-1132): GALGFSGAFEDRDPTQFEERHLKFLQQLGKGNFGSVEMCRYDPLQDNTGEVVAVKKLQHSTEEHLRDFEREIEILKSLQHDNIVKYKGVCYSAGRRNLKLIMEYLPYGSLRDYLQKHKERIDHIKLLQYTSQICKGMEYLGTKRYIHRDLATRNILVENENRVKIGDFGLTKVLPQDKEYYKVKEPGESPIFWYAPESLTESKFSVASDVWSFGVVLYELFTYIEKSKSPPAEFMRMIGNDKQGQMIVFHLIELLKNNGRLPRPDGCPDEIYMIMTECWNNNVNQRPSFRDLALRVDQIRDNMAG
Description: In vitro JAK kinase assay (HTRF, phosphorylation of a biotinylated peptide), JAK2. The method in brief:
as §1

For test [4], the target named is T4, human JAK1 (a.a. 837-1142) (Homo sapiens, UniProt P23458).
T4 construct: human JAK1 (a.a. 837-1142); His tag (N); made in house; host or cells: insect cells (baculovirus)
T4 sequence (P23458 849-1154): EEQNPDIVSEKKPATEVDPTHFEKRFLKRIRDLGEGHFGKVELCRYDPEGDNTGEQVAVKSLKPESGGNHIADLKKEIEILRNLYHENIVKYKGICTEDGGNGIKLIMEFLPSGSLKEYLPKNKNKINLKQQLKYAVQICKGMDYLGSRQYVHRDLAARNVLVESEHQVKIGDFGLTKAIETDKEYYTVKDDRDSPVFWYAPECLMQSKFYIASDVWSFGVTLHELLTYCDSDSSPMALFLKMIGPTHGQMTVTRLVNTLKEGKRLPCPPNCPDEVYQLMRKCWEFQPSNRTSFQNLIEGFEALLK
Description: In vitro JAK kinase assay (HTRF, phosphorylation of a biotinylated peptide), JAK1. Particulars: read-out: JAK1 IC50. Put shortly: as §1

Another test concerns the target TYK2 (Homo sapiens, UniProt P29597). Description: TYK2 kinase inhibition (Table A1).
Setting [5] is: compound at 500 nM or 1 mM, 90 μM ATP.
Where [6] appears, read: method AA1 (3 μM ATP) or AA2 (1000 μM ATP), not stated per value.
The mark [7] stands for this setting: method AA1 (30 μM ATP) or AA2 (1000 μM ATP), not stated per value.
The mark [8] stands for this setting: method AA1 (90 μM ATP) or AA2 (1000 μM ATP), not stated per value.
Where [9] appears, read: Table B1, cells without percent sign.
The mark [10] stands for this setting: compound at a concentration of 500 nM or 1 mM (not specified), cells shown as percentage.

TYK2, sequence (P29597 whole entry): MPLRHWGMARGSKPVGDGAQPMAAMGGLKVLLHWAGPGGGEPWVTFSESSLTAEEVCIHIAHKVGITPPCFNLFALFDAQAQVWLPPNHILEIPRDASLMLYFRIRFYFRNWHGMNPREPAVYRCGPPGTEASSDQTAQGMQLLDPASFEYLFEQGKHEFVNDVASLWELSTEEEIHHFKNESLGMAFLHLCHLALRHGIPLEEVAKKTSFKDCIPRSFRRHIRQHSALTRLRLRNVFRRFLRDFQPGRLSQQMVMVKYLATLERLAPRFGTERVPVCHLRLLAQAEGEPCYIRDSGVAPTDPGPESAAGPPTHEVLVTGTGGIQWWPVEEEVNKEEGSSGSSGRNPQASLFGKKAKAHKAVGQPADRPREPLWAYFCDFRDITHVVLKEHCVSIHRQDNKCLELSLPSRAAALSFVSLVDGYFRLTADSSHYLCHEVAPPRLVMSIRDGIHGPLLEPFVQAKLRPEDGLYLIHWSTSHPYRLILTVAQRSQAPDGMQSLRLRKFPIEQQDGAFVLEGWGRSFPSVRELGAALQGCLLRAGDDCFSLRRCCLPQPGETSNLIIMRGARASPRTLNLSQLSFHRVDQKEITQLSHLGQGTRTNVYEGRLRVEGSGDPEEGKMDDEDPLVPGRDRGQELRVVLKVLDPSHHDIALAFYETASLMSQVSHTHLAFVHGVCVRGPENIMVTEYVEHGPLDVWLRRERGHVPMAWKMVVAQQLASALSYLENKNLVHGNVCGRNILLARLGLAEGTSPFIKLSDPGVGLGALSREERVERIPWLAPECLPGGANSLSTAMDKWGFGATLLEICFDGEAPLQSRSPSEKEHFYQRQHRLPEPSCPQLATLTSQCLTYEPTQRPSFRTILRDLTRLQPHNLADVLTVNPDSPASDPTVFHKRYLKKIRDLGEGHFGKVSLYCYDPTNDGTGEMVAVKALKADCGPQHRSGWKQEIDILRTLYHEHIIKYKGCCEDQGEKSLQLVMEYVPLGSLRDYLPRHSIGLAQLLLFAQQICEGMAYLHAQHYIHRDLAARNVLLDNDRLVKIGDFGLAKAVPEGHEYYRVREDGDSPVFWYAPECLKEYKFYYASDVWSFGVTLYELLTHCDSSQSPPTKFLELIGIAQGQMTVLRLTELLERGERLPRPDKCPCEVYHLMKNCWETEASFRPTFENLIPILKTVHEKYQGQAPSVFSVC
T1 sequence (Q9UM73 19-1620): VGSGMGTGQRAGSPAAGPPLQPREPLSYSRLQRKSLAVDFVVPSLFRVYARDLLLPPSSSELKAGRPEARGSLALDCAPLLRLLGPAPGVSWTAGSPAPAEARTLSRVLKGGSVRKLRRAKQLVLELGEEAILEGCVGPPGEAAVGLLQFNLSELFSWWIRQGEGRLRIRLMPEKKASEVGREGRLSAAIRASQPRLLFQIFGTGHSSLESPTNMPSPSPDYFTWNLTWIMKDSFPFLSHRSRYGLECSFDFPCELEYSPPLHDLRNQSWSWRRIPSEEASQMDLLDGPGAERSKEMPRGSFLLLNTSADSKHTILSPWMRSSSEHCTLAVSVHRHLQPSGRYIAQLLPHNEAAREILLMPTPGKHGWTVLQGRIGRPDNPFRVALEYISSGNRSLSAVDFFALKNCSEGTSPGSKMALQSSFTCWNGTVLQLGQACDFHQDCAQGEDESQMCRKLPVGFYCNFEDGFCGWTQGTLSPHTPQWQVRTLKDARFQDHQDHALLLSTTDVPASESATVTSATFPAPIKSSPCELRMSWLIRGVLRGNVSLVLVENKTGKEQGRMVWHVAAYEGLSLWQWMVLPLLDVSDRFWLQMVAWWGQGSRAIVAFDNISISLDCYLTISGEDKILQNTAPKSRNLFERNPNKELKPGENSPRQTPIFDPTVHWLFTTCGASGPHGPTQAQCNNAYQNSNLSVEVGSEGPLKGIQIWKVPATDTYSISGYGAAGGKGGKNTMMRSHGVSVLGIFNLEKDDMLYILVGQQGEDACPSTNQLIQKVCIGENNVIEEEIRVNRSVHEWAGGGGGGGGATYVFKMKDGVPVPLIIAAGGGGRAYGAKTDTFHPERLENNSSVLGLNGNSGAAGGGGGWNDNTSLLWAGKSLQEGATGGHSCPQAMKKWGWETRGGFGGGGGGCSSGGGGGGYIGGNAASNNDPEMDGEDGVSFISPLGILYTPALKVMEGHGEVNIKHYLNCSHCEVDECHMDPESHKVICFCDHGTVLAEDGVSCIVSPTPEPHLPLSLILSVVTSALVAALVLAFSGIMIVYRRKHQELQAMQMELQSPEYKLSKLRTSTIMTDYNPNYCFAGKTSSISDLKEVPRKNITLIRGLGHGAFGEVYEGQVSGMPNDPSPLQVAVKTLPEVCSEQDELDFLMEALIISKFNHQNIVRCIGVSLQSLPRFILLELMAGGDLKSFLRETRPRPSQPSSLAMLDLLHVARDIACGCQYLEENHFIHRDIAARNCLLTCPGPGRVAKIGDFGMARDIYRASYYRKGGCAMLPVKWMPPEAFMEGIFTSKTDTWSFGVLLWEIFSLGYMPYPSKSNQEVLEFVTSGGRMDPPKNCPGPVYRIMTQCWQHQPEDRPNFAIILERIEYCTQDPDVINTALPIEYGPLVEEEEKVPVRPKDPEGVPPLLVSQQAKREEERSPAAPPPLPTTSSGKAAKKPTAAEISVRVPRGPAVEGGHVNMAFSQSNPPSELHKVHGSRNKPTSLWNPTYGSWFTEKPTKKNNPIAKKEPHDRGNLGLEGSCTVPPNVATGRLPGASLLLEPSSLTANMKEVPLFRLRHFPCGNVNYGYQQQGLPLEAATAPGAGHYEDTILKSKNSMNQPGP

Turning to `Clc1cnc2nc1Nc1cccc(c1)OCCc1cccc(c1)N2` [Example D8, 6-Chloro-14-oxa-2,4,8,23-tetraazatetracyclo[15.3.1.1(3,7).1(9,13)]tricosa-1(21),3(23),4,6,9(22),10,12,17,19-nonaene trifluoroacetate], the IC50 in test [1] (Table D1, 90 μM ATP) stood at 351 nM; in test [2] (Table D1), 13 nM; in test [3] (Table D1) it was 5.4 nM; in test [4] (Table D1), 7.9 nM; on TYK2 (Table D1) it was 19 nM.
Turning to `O=C(CC1CCN(C(=O)c2ccc(F)cc2)CC1)Nc1ccc2cc1CCc1cccc(c1)Nc1ncc(Cl)c(n1)N2` [Example A203, N-[6-Chloro-2,4,8,22-tetraazatetracyclo[14.3.1.1(3,7).1(9,13)]docosa-1(20),3(22),4,6,9(21),10,12,16,18-nonaen-12-yl]-2-[1-(4-fluorobenzoyl)piperidin-4-yl]acetamide trifluoroacetate], the “ALK % of inhibition at a concentration of 500 nM or 1 mM” value (shortened to “ALK % of inhibition”) in test [1] (setting [5]) was 38%. The IC50 was over 200 nM in test [2] (setting [6]), 150 nM in test [3] (setting [7]), 38 nM in test [4] (setting [8]) and over 200 nM against TYK2.
In the case of `CC(=O)Nc1ccc2cc1CCc1cccc(c1)Nc1ncc(Cl)c(n1)N2` [Example B26, N-[6-Chloro-2,4,8,22-tetraazatetracyclo[14.3.1.1(3,7).1(9,13)]docosa-1(20), 3(22),4,6,9(21),10,12,16,18-nonaen-12-yl]acetamide trifluoroacetate], the half-inhibitory concentration (IC50) came to 1100 nM in test [1] (setting [9]); 7.4 nM in test [2] (Table B1); 4.1 nM in test [3] (Table B1); 6.5 nM in test [4] (Table B1); 15 nM on TYK2 (Table B1).
`Cc1ccccc1NC(=O)Nc1ccc2cc1CCc1cccc(c1)Nc1ncc(Cl)c(n1)N2` [Example B91, N-[6-Chloro-2,4,8,22-tetraazatetracyclo[14.3.1.1(3,7).1(9,13)]docosa-1(20), 3(22),4,6,9(21),10,12,16,18-nonaen-12-yl]-N′-(2-methylphenyl)urea trifluoroacetate]: the half-inhibitory concentration (IC50) in test [1] (setting [9]) was over 1000 nM; in test [2] (Table B1) it was 28 nM; in test [3] (Table B1), 2.7 nM; in test [4] (Table B1), 2.1 nM; against TYK2 (Table B1) it was 13 nM.
Turning to `Cc1ccnc(Nc2ccc3cc2CCc2cccc(c2)Nc2ncc(Cl)c(n2)N3)n1` [Example B276, 6-Chloro-N-(4-methylpyrimidin-2-yl)-2,4,8,22-tetraazatetracyclo[14.3.1.1(3,7).1(9,13)]docosa-1(20),3(22),4,6,9(21),10,12,16,18-nonaen-12-amine bis(trifluoroacetate)], the “ALK % of inhibition” value in test [1] (setting [10]) is listed as 22%. The IC50 in test [2] (Table B1) came to 1170 nM; in test [3] (Table B1), 11 nM; in test [4] (Table B1), 6.5 nM; on TYK2 (Table B1), 34 nM.
On the same counts, the results for `O=C(Nc1ccc2cc1CCc1cccc(c1)Nc1ncc(Cl)c(n1)N2)N[C@H]1CCN(C(=O)c2cccnc2)C1` [Example B171, N-[6-Chloro-2,4,8,22-tetraazatetracyclo[14.3.1.1(3,7).1(9,13)]docosa-1(20),3(22),4,6,9(21),10,12,16,18-nonaen-12-yl]-N′-[(3S)-1-(pyridin-3-ylcarbonyl)pyrrolidin-3-yl]urea bis(trifluoroacetate)] are 15%, 51 nM, 12 nM, 2.8 nM and 30 nM.
For the compound `O=C(Nc1cc2cc(c1)Nc1nc(ncc1Cl)Nc1cccc(c1)CC2)c1nc2ccccc2s1` [Example B204, N-[6-Chloro-2,4,8,22-tetraazatetracyclo[14.3.1.1(3,7).1(9,13)]docosa-1(20),3(22),4,6,9(21),10,12,16,18-nonaen-11-yl]-1,3-benzothiazole-2-carboxamide trifluoroacetate], the IC50 in test [1] (setting [9]) was over 10000 nM; in test [2] (Table B1), over 1000 nM; in test [3] (Table B1), 500 nM; in test [4] (Table B1) it was over 1000 nM; at TYK2 (Table B1), over 1000 nM.
For the compound `NCC(=O)Nc1ccc2cc1CCc1cccc(c1)Nc1ncc(Cl)c(n1)N2` [Example A107, 2-Amino-N-[6-chloro-2,4,8,22-tetraazatetracyclo[14.3.1.1(3,7).1(9,13)]docosa-1(20),3(22),4,6,9(21),10,12,16,18-nonaen-12-yl]acetamide bis(trifluoroacetate)], the “ALK % of inhibition” value in test [1] (setting [5]) is on record as 39%. The IC50 in test [2] (setting [6]) worked out at 8.2 nM; in test [3] (setting [7]), 10 nM; in test [4] (setting [8]), 4 nM; on TYK2, 4.2 nM.
Turning to `Clc1cnc2nc1Nc1cccc(c1)SCCc1cccc(c1)N2` [Example D18, 6-Chloro-14-thia-2,4,8,23-tetraazatetracyclo[15.3.1.1(3,7).1(9,13)]tricosa-1(21),3(23),4,6,9(22),10,12,17,19-nonaene trifluoroacetate], the IC50 in test [1] (Table D1, 90 μM ATP) came out at 327 nM; in test [2] (Table D1) it was 24 nM; in test [3] (Table D1) it was 6.6 nM; in test [4] (Table D1) it was 5.4 nM; against TYK2 (Table D1) it was 19 nM.
Turning to `O=C(CC1CCN(S(=O)(=O)c2ccccc2C(F)(F)F)CC1)Nc1ccc2cc1CCc1cncc(c1)Nc1ncc(Cl)c(n1)N2` [Example A224, N-[6-Chloro-2,4,8,18,22-pentaazatetracyclo[14.3.1.1(3,7).1(9,13)]docosa-1(20),3(22),4,6,9(21),10,12,16,18-nonaen-12-yl]-2-(1-{[2-(trifluoromethyl)phenyl]sulfonyl}piperidin-4-yl)acetamide bis(trifluoroacetate)], the “ALK % of inhibition” value in test [1] (setting [5]) was 30%. Further, the IC50 in test [2] (setting [6]) was over 400 nM; in test [3] (setting [7]), over 400 nM; in test [4] (setting [8]), 14 nM; at TYK2 it was over 400 nM.
As for `O=S1(=O)Cc2cccc(c2)Nc2ncc(Cl)c(n2)Nc2cccc(c2)N1` [Example C9, 6-Chloro-15-thia-2,4,8,14,23-pentaazatetracyclo[15.3.1.1(3,7).1(9,13)]tricosa-1(21),3(23),4,6,9(22),10,12,17,19-nonaene 15,15-dioxide trifluoroacetate], the concentration for half-maximal inhibition (IC50) in test [1] was over 1000 nM; in test [2] it was 412 nM; in test [3], 93 nM; in test [4], 144 nM; on TYK2, 353 nM.
`CC(C)N1CCC(CC(=O)Nc2ccc3cc2CCc2cncc(c2)Nc2ncc(Cl)c(n2)N3)CC1` [Example A140, N-[6-Chloro-2,4,8,18,22-pentaazatetracyclo[14.3.1.1(3,7).1(9,13)]docosa-1(20),3(22),4,6,9(21),10,12,16,18-nonaen-12-yl]-2-(1-isopropylpiperidin-4-yl)acetamide tris(trifluoroacetate)]: in test [1] (setting [5]), the “ALK % of inhibition” value turned out to be 18%. In addition, the IC50 in test [2] (setting [6]) came to 117 nM; in test [3] (setting [7]), 46 nM; in test [4] (setting [8]), 38 nM; on TYK2, 68 nM.
For `CN(C(=O)Nc1ccc2cc1CCc1cncc(c1)Nc1ncc(Cl)c(n1)N2)[C@H]1CCNC1` [Example B288, N′-[6-Chloro-2,4,8,18,22-pentaazatetracyclo[14.3.1.1(3,7).1(9,13)]docosa-1(20),3(22),4,6,9(21),10,12,16,18-nonaen-12-yl]-N-methyl-N-[(3S)-pyrrolidin-3-yl]urea tris(trifluoroacetate)], in test [1] (setting [10]), the “ALK % of inhibition” value turned out to be 18%. Further, the IC50 in test [2] (Table B1) was over 200 nM; in test [3] (Table B1), 180 nM; in test [4] (Table B1) it was 42 nM; against TYK2 (Table B1), over 200 nM.
